From article PMC9120017, “Inhibition mechanism of the chloride channel TMEM16A by the pore blocker 1PBC” (Nature Communications, 2022)
pIC50: −log10 of the molar value. Where two headings read alike, the source gives them in different places.

Molecular target: T1, mouse TMEM16A mutant V599A (Mus musculus, UniProt Q8BHY3, V599A)
T1 construct: expressed in transfected cells; host or cells: HEK293T
T1 sequence (Q8BHY3 1-960 V599A): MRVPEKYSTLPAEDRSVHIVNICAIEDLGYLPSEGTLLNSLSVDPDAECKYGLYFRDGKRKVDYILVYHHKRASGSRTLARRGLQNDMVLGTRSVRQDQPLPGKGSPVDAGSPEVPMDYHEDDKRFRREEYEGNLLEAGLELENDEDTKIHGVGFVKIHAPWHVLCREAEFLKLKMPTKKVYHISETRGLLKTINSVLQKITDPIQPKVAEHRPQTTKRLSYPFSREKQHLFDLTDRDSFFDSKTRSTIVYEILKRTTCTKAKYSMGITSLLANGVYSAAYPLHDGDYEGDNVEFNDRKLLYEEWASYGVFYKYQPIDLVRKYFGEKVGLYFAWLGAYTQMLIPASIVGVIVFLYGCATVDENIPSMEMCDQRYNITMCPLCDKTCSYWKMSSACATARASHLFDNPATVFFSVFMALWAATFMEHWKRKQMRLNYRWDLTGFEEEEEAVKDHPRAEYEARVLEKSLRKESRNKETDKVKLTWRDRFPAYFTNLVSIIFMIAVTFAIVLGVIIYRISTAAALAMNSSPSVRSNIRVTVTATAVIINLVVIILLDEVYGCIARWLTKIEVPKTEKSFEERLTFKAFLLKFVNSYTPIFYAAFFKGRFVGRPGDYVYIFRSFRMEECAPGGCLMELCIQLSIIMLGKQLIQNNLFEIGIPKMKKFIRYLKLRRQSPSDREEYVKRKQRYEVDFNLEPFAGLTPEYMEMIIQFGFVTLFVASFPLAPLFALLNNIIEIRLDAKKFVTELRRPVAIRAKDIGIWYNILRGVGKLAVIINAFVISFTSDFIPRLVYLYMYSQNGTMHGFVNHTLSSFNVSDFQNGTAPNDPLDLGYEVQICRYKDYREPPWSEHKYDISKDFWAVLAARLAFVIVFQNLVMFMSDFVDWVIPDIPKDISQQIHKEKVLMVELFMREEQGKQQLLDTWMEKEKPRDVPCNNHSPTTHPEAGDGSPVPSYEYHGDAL
Assay: Inside-out patch recording of 1PBC block, mutant V599A
Assay type: cell-based
Conditions: for remaining activity at 3 µM: 1PBC conc 3; for remaining activity at 3 µM / remaining activity at 10 µM / remaining activity at 30 µM / remaining activity at 100 µM: read-out: relative current in 1PBC (avr); for remaining activity at 10 µM: 1PBC conc 10; for remaining activity at 30 µM: 1PBC conc 30; for remaining activity at 100 µM: 1PBC conc 100
Experimental: HEK293T cells (ATCC CRL-1573) were maintained in Dulbecco’s modified Eagle’s medium (DMEM; Sigma-Aldrich) supplemented with 10 U ml^−1 penicillin, 0.1 mg ml^−1 streptomycin (Sigma-Aldrich), 2 mM L-glutamine (Sigma-Aldrich), and 10% FBS (Sigma-Aldrich) in a humidified atmosphere containing 5% CO2 at 37 °C. HEK293S GnTI^− cells (ATCC CRL-3022) were maintained in HyClone HyCell TransFx-H medium (GE Healthcare) supplemented with 10 U ml^−1 penicillin, 0.1 mg ml^−1 streptomycin, 4 mM L-glutamine, 0.15% poloxamer 188 (Sigma-Aldrich), and 1% FBS in an atmosphere containing 5% CO2 at 185 rpm at 37 °C. The ac splice variant of mouse TMEM16A (UniProt ID: Q8BHY3), mouse TMEM16B (UniProt ID: Q8CFW1), or mouse TMEM16F (UniProt ID: Q6P9J9) bearing a 3C cleavage site, a Venus YFP, a Myc tag, and a Streptavidin-binding peptide (SBP) downstream of the open reading frame in a modified pcDNA3.1 vector (Invitrogen) were used as described previously[21],[31]. Mutations were introduced using a modified QuikChange method[58] and were verified by sequencing.
HEK293T cells were transfected with 3–4 μg DNA per 6 cm Petri dish using the calcium phosphate co-precipitation method and were used within 24–96 h after transfection. Recordings were performed on inside-out patches excised from HEK293T cells expressing the construct of interest. Patch pipettes were pulled from borosilicate glass capillaries (O.D. 1.5 mm, I.D. 0.86 mm, Sutter Instrument) and were fire-polished with a microforge (Narishige) before use. Pipette resistance was typically 3–8 MΩ when filled with the recording solutions detailed below. Seal resistance was typically 4 GΩ or higher. Voltage-clamp recordings were made using Axopatch 200B, Digidata 1550, and Clampex 10.7 (Molecular Devices). Analog signals were filtered with the in-built 4-pole Bessel filter at 10 kHz and were digitized at 20 kHz. Solution exchange was achieved using a gravity-fed system through a theta glass pipette mounted on an ultra-fast piezo-driven stepper (Siskiyou). […] All recordings were performed at 20 °C.
A symmetrical ionic condition was used throughout. Stock solution with Ca^2+-EGTA contained 150 mM NaCl, 5.99 mM Ca(OH)2, 5 mM EGTA, and 10 mM HEPES at pH 7.40. Stock solution with EGTA contained 150 mM NaCl, 5 mM EGTA, and 10 mM HEPES at pH 7.40. Free Ca^2+ concentrations were adjusted by mixing the stock solutions at the required ratios calculated using the WEBMAXC program (http://web.stanford.edu/~cpatton/webmaxcS.htm). Patch pipettes were filled with the stock solution with Ca^2+-EGTA, which has a free Ca^2+ concentration of 1 mM. 1PBC (ChemBridge) stock was reconstituted in anhydrous DMSO (Sigma-Aldrich) at 100 mM and stored at −20 °C. Working solutions with 1PBC were prepared by serial dilution. Unless otherwise stated, experiments were performed at a saturating Ca^2+ concentration as shown in Supplementary Table 1 and the primary data were corrected for current rundown as described previously[21],[25].
Concentration-response relations, obtained from the ratio of the I-V plots before and after the application of the blocker, were fitted to the Hill equation,1 I/Imax=1/1+IC50/[blocker]^h where I/Imax is the normalized current responses, IC50 defines the concentration at which inhibition is at its half-maximum, and h is the Hill coefficient.

With N#Cc1c(C(F)(F)F)cc(O)n2c1nc1ccccc12 [1PBC] as the compound, how does the pIC50 (-20 mV, 15 µM Ca2+) read?
The pIC50 was 4.10.

What about the remaining activity at 3 µM (-20 mV) of the same compound?
Its remaining activity at 3 µM is 93.7%.

And the remaining activity at 10 µM (-20 mV)?
Its remaining activity at 10 µM is 88.9%.

What about the remaining activity at 30 µM (-20 mV) of the same compound?
The remaining activity at 30 µM was 74.6%.

What about the remaining activity at 100 µM (-20 mV) of the same compound?
The remaining activity at 100 µM was 42.8%.

And the pIC50 (-40 mV, 15 µM Ca2+)?
Its pIC50 is 4.06.

What about the remaining activity at 3 µM (-40 mV) of the same compound?
Its remaining activity at 3 µM is 93.7%.

What about the remaining activity at 10 µM (-40 mV) of the same compound?
Its remaining activity at 10 µM is 89.2%.

What about the remaining activity at 30 µM (-40 mV) of the same compound?
The remaining activity at 30 µM was 76.8%.

What about the remaining activity at 100 µM (-40 mV) of the same compound?
The remaining activity at 100 µM was 45.5%.

What about the pIC50 (-60 mV, 15 µM Ca2+) of the same compound?
The pIC50 was 4.01.

What about the remaining activity at 3 µM (-60 mV) of the same compound?
The remaining activity at 3 µM was 94.2%.

And the remaining activity at 10 µM (-60 mV)?
The remaining activity at 10 µM was 90.8%.

What about the remaining activity at 30 µM (-60 mV) of the same compound?
Its remaining activity at 30 µM is 77.7%.

What about the remaining activity at 100 µM (-60 mV) of the same compound?
Its remaining activity at 100 µM is 48.6%.

What about the pIC50 (-80 mV, 15 µM Ca2+) of the same compound?
The pIC50 was 3.98.

And the remaining activity at 3 µM (-80 mV)?
The remaining activity at 3 µM was 94.9%.

And the remaining activity at 10 µM (-80 mV)?
The remaining activity at 10 µM was 91.7%.

And the remaining activity at 30 µM (-80 mV)?
The remaining activity at 30 µM was 78.1%.

What about the remaining activity at 100 µM (-80 mV) of the same compound?
The remaining activity at 100 µM was 50.8%.

What about the pIC50 (-100 mV, 15 µM Ca2+) of the same compound?
Its pIC50 is 3.96.

What about the remaining activity at 3 µM (-100 mV) of the same compound?
The remaining activity at 3 µM was 94.9%.

What about the remaining activity at 10 µM (-100 mV) of the same compound?
Its remaining activity at 10 µM is 91.7%.

What about the remaining activity at 30 µM (-100 mV) of the same compound?
The remaining activity at 30 µM was 78.5%.

And the remaining activity at 100 µM (-100 mV)?
Its remaining activity at 100 µM is 52.3%.

And the pIC50 (-120 mV, 15 µM Ca2+)?
The pIC50 was 3.94.

What about the remaining activity at 3 µM (-120 mV) of the same compound?
Its remaining activity at 3 µM is 95.9%.

What about the remaining activity at 10 µM (-120 mV) of the same compound?
The remaining activity at 10 µM was 93.5%.

What about the remaining activity at 30 µM (-120 mV) of the same compound?
Its remaining activity at 30 µM is 79.4%.

And the remaining activity at 100 µM (-120 mV)?
Its remaining activity at 100 µM is 53.3%.

And the pIC50 (-140 mV, 15 µM Ca2+)?
Its pIC50 is 3.92.

And the remaining activity at 3 µM (-140 mV)?
Its remaining activity at 3 µM is 96%.

What about the remaining activity at 10 µM (-140 mV) of the same compound?
The remaining activity at 10 µM was 93.2%.

And the remaining activity at 30 µM (-140 mV)?
The remaining activity at 30 µM was 79.3%.

What about the remaining activity at 100 µM (-140 mV) of the same compound?
Its remaining activity at 100 µM is 54.7%.

What about the pIC50 (V599A, V 0 mV) of the same compound?
Its pIC50 is 4.16.

And the pIC50 (V599A, V 20 mV)?
The pIC50 was 4.21.

What about the pIC50 (V599A, V 40 mV) of the same compound?
Its pIC50 is 4.26.

And the pIC50 (V599A, V 60 mV)?
Its pIC50 is 4.31.

What about the pIC50 (V599A, V 80 mV) of the same compound?
The pIC50 was 4.34.

And the pIC50 (V599A, V 100 mV)?
The pIC50 was 4.35.

And the pIC50 (V599A, V 120 mV)?
Its pIC50 is 4.35.

And the pIC50 (V599A, V 140 mV)?
The pIC50 was 4.31.

What about the pIC50 (V599A, V -20 mV) of the same compound?
Its pIC50 is 4.10.

What about the pIC50 (V599A, V -40 mV) of the same compound?
Its pIC50 is 4.06.

And the pIC50 (V599A, V -60 mV)?
The pIC50 was 4.01.

What about the pIC50 (V599A, V -80 mV) of the same compound?
The pIC50 was 3.98.

And the pIC50 (V599A, V -100 mV)?
Its pIC50 is 3.96.

What about the pIC50 (V599A, V -120 mV) of the same compound?
The pIC50 was 3.94.

What about the pIC50 (V599A, V -140 mV) of the same compound?
The pIC50 was 3.92.
